# Data as given in paper PMC12250347, “Calcium-dependent pathway as a primary cause of hypoxic RGC damage in monkey retinal explants” (PLOS One, 2025).
# How the values were obtained:
# [1] = system: calpain 1 activation and proteolysis of α-spectrin; parameters: method as in PMID 26393472; conditions: immunoblotting of hypoxic retinal explants; cited from earlier work
# [2] = system: calpains 1 and 2 in monkey retinal lysate; experiment: In vitro inhibitory assay of calpains from retinal lysate (CaCl2, immunoblotting); type: biochemical; conditions: non-cultured monkey retina lysate, 10 mM CaCl2, 2 hr, 37°C; inhibitor at 1, 10 and 100 µM
# Protocol: Each retinal explant was sonicated in RIPA Lysis and Extraction Buffer (Thermo Fisher Scientific), with protease inhibitors cocktail (Complete Mini-EDTA-free; MilliporeSigma). Protein concentrations in lysates were measured by BCA assay (Pierce BCA Protein Assay Kit, Thermo Fisher Scientific) using bovine serum albumin as a standard. For immunoblotting, 5 μg of each sample was loaded and run on 4% to 12% gradient or 10% SDS-PAGE gels (NuPAGE Bis-Tris Protein Gels, Thermo Fisher Scientific) with 2-(N-morpholino)ethanesulfonic acid buffer or 3-(N-morpholino) propanesulfonic acid buffer (Thermo Fisher Scientific). Proteins were then electrotransferred to a polyvinylidene fluoride membrane (MilliporeSigma) at 100 V for 60 min or 1.5 hr. Membranes were then blocked with 5% skim milk in Tris-buffer saline (Bio-Rad Laboratories, Hercules, CA, USA) containing 0.05% Tween 20. Each membrane was probed with primary antibodies against α-spectrin (1:2000 dilution, Enzo Life Sciences, Farmingdale, NY, USA), SBDP150 (1:1000 dilution, Senju Pharmaceutical), calpain 1 (1:1000 dilution, Thermo Fisher Scientific), calpain 2 (1:500, GeneTex, Irvine, CA, USA), cathepsin K (1:500 dilution, Abcam), and β-actin (1:1000 dilution, Merck). For calpain 1, immunoreactivity was visualized using a secondary antibody conjugated to alkaline phosphatase and the AP Conjugate Substrate Kit (Bio-Rad Laboratories). For other proteins, immunoreactivities were visualized using secondary antibodies conjugated with rabbit (Santa Cruz Biotechnology) or mouse horseradish peroxidase enzyme (Cytiva, Wilmington, DE, USA) and ECL Plus detection reagents (Cytiva). Images of the membranes were captured with FluorChem FC2 imager (Cell Biosciences, Santa Clara, CA, USA). The conversion of pro-cathepsin K (38 kDa) to its mature form (27 kDa) was used as an indicator of cathepsin K activation.
# To confirm the isozyme specificities of calpain inhibitors in vitro, non-cultured monkey retinas were sonicated in a buffer containing 20 mM Tris (pH 7.5), 5 mM EGTA, 5 mM EDTA, 2 mM DTE. […]
structure (smiles),measurement,setting,value
COCCOCCOC(=O)N[C@@H](CC(C)C)C(=O)N[C@@H](Cc1ccccc1)C(=O)C(=O)NC1CC1 [SNJ-1945],Effect on autolysis of calpain 1 in hypoxic retinal explants,[1],inhibited the autolysis of calpain 1
same,Effect on autolysis of calpain 2 in hypoxic retinal explants,[1],did not affect
same,Effect on calcium-induced activation (autolysis) of calpains 1 and 2 and SBDP150 in retinal lysate,[2],inhibited the activation of both calpain 1 and calpain 2 in a dose-dependent manner
